What all share (format): in vivo
One test relates to Dichromothrips corbetti. The test can be described thus: B.6 Orchid thrips, floral-immersion technique. The conditions noted are these: for mortality at 300 ppm: Dichromothrips corbetti, adult thrips, 72 hours after treatment, read-out: mortality in comparison with untreated controls; for B.6, 100 ppm: comparative experiment, thrips mortality, unit not given. As to the method: B.6 Orchid Thrips (Dichromothrips corbetti)
Dichromothrips corbetti adults used for bioassay were obtained from a colony maintained continuously under laboratory conditions. For testing purposes, the test compound is diluted in a 1:1 mixture of acetone:water (vol:vol), plus Kinetic HV at a rate of 0.01% v/v.
Thrips potency of each compound was evaluated by using a floral-immersion technique. All petals of individual, intact orchid flowers were dipped into treatment solution and allowed to dry in Petri dishes. Treated petals were placed into individual re-sealable plastic along with about 20 adult thrips. All test arenas were held under continuous light and a temperature of about 28° C. for duration of the assay. After 3 days, the numbers of live thrips were counted on each petal. The percent mortality was recorded 72 hours after treatment.

Another test relates to Myzus persicae. The test can be described thus: B.2 Green peach aphid, systemic test on artificial diet in microtiter plates. The settings on record: for mortality at 2500 ppm: Myzus persicae, 72 h, adult aphids, 3 days, read-out: mortality in comparison with untreated controls; for B.2, 10 ppm / B.2, 25 ppm: comparative experiment, aphid mortality, unit not given. An excerpt:
B.2 Green Peach Aphid (Myzus persicae)
For evaluating control of green peach aphid (Myzus persicae) through systemic means the test unit consisted of 96-well-microtiter plates containing liquid artificial diet under an artificial mem brane.
The compounds were formulated using a solution containing 75% v/v water and 25% v/v DMSO. Different concentrations of formulated compounds were pipetted into the aphid diet, using a custom built pipetter, at two replications.
After application, 5-8 adult aphids were placed on the artificial membrane inside the microtiter plate wells. The aphids were then allowed to suck on the treated aphid diet and incubated at about 23±1° C. and about 50±5% relative humidity for 3 days. Aphid mortality and fecundity was then visually assessed.

The subject of a further test is Heliothis virescens. As to the kind of experiment: B.3 Tobacco budworm, insect diet and eggs in microtiter plates. The settings on record: 120 h, egg and larval mortality, 5 days, read-out: mortality in comparison with untreated controls. The procedure:
B.3 Tobacco Budworm (Heliothis virescens)
For evaluating control of tobacco budworm (Heliothis virescens) the test unit consisted of 96-well-microtiter plates containing an insect diet and 15-25 H. virescens eggs.
The compounds were formulated using a solution containing 75% v/v water and 25% v/v DMSO. Different concentrations of formulated compounds were sprayed onto the insect diet at 10 μl, using a custom-built micro atomizer, at two replications.
After application, microtiter plates were incubated at about 28±1° C. and about 80±5% relative humidity for 5 days. Egg and larval mortality was then visually assessed.

The next test relates to Anthonomus grandis. As to the kind of experiment: B.4 Boll weevil, insect diet and eggs in microtiter plates. The settings on record: 120 h, egg and larval mortality, 5 days, read-out: mortality in comparison with untreated controls. The procedure:
B.4 Boll Weevil (Anthonomus grandis)
For evaluating control of boll weevil (Anthonomus grandis) the test unit consisted of 96-well-microtiter plates containing an insect diet and 5-10 A. grandis eggs.
The compounds were formulated using a solution containing 75% v/v water and 25% v/v DMSO. Different concentrations of formulated compounds were sprayed onto the insect diet at 5 μl, using a custom-built micro atomizer, at two replications.
After application, microtiter plates were incubated at about 25±1° C. and about 75±5% relative humidity for 5 days. Egg and larval mortality was then visually assessed.

The subject of a further test is Spodoptera eridania. The test can be described thus: B.5 Southern armyworm, 2nd instar larvae, sprayed lima bean plants. The settings on record: 96 h, 4 days after treatment, read-out: mortality in comparison with untreated controls. As to the method:
B.5. Southern Armyworm (Spodoptera eridania), 2nd Instar Larvae
The active compounds were formulated by a Tecan liquid handler in 100% cyclohexanone as a 10,000 ppm solution supplied in tubes. The 10,000 ppm solution was serially diluted in 100% cyclohexanone to make interim solutions. These served as stock solutions for which final dilutions were made by the Tecan in 50% acetone:50% water (v/v) into 10 or 20 ml glass vials. A nonionic surfactant (Kinetic®) was included in the solution at a volume of 0.01% (v/v). The vials were then inserted into an automated electrostatic sprayer equipped with an atomizing nozzle for application to plants/insects. Lima bean plants (variety Sieva) were grown 2 plants to a pot and selected for treatment at the 1st true leaf stage. Test solutions were sprayed onto the foliage by an automated electrostatic plant sprayer equipped with an atomizing spray nozzle. The plants were dried in the sprayer fume hood and then removed from the sprayer. Each pot was placed into perforated plastic bags with a zip closure. Ten to 11 armyworm larvae were placed into the bag and the bags zipped closed. Test plants were maintained in a growth room at about 25° C. and about 20-40% relative humidity for 4 days, avoiding direct exposure to fluorescent light (14:10 light:dark photoperiod) to prevent trapping of heat inside the bags. Mortality and reduced feeding were assessed 4 days after treatment, compared to untreated control plants.

Another test deals with Plutella xylostella. As to the kind of experiment: B.1 Diamond back moth, cabbage leaf dip test. The conditions noted are these: foliar, 3rd instar larvae, 72 hours after treatment, read-out: mortality in comparison with untreated controls. The procedure:
B.1 Diamond Back Moth (Plutella xylostella)
The active compound was dissolved at the desired concentration in a mixture of 1:1 (vol:vol) distilled water:acetone. Surfactant (Kinetic HV) was added at a rate of 0.01% (vol/vol). The test solution was prepared on the day of use.
Leaves of cabbage were dipped in test solution and air-dried. Treated leaves were placed in petri dishes lined with moist filter paper and inoculated with ten 3rd instar larvae. Mortality was recorded 72 hours after treatment. Feeding damages were also recorded using a scale of 0-100%.

For the next test, the system named is Aedes aegypti. The test can be described thus: B.7 Yellow fever mosquito, larvae in microtiter plates. The settings on record: comparative experiment, larval mortality after 2 days, unit not given. The procedure: B.7 Yellow Fever Mosquito (Aedes aegypti)
For evaluating control of yellow fever mosquito (Aedes aegypti) the test unit consisted of 96-well-microtiter plates containing 200 μl of tap water per well and 5-15 freshly hatched A. aegypti larvae.
The active compounds were formulated using a solution containing 75% (v/v) water and 25% (v/v) DMSO. Different concentrations of formulated compounds or mixtures were sprayed onto the insect diet at 2.5 μl, using a custom-built micro atomizer, at two replications.
After application, microtiter plates were incubated at 28±1° C., 80±5% RH for 2 days. Larval mortality was then visually assessed.

As to `CC(NC(=O)c1cc(Br)cc(C(F)(F)F)c1)c1nccnc1-n1ncn(C)c1=O` (stereo not shown) [I-1, 3-bromo-N-[1-[3-(4-methyl-5-oxo-1,2,4-triazol-1-yl)pyrazin-2-yl]ethyl]-5-(trifluoromethyl)benzamide], in the test with Dichromothrips corbetti, the mortality at 300 ppm is no less than 75%. Besides, the mortality at 2500 ppm in the test with Myzus persicae, with Heliothis virescens and in the test on Anthonomus grandis was no less than 75% each time.

In the case of `CC(NC(=O)c1cc(Br)cc(C(F)(F)F)c1)c1nccnc1-n1ncn(CC(F)(F)F)c1=O` (stereo not shown) [I-2, 3-bromo-N-[1-[3-[5-oxo-4-(2,2,2-trifluoroethyl)-1,2,4-triazol-1-yl]pyrazin-2-yl]ethyl]-5-(trifluoromethyl)benzamide], the mortality at 300 ppm with Dichromothrips corbetti was no less than 75%. The mortality at 2500 ppm in the test with Myzus persicae, in the test with Heliothis virescens and in the test on Anthonomus grandis was no less than 75% throughout.

`COc1ccc(Cn2cnn(-c3nccnc3C(C)NC(=O)c3cc(Br)cc(S(C)(=O)=O)c3)c2=O)cc1` (stereo not shown) [I-3, 3-bromo-N-[1-[3-[4-[(4-methoxyphenyl)methyl]-5-oxo-1,2,4-triazol-1-yl]pyrazin-2-yl]ethyl]-5-methylsulfonyl-benzamide]: the mortality at 2500 ppm in the test with Myzus persicae is no less than 75%.

Take `CC(NC(=O)c1cc(Br)cc(S(C)(=O)=O)c1)c1nccnc1-n1ncn(CC2CC2)c1=O` (stereo not shown) [I-5, 3-bromo-N-[1-[3-[4-(cyclopropylmethyl)-5-oxo-1,2,4-triazol-1-yl]pyrazin-2-yl]ethyl]-5-methylsulfonyl-benzamide]: the mortality at 300 ppm in the test on Spodoptera eridania and with Plutella xylostella was no less than 75% each time. For the same compound, the mortality at 2500 ppm with Myzus persicae and in the test on Anthonomus grandis was no less than 75% throughout.

For the compound `CC(c1nccnc1-n1ncn(C)c1=O)N(C)C(=O)c1cc(Br)cc(S(C)(=O)=O)c1` (stereo not shown) [I-8, 3-bromo-N-methyl-N-[1-[3-(4-methyl-5-oxo-1,2,4-triazol-1-yl)pyrazin-2-yl]ethyl]-5-methylsulfonyl-benzamide], the mortality at 2500 ppm in the test with Myzus persicae is no less than 75%.

`CC(NC(=O)c1cc(C(F)(F)F)cc(C(F)(F)F)c1)c1nccnc1-n1ncn(C)c1=O` (stereo not shown) [I-10]: in the test on Dichromothrips corbetti, the “B.6, 100 ppm” value was determined as 100. The mortality at 300 ppm in the test with Dichromothrips corbetti, with Spodoptera eridania and with Plutella xylostella was no less than 75% each time. In the test on Myzus persicae, the “B.2, 10 ppm” value amounted to 100. Moreover, the mortality at 2500 ppm in the test with Myzus persicae, with Heliothis virescens and in the test with Anthonomus grandis was no less than 75% each time.

`CC(c1nccnc1-n1ncn(CC(F)(F)F)c1=O)N(CC1CC1)C(=O)c1cc(C(F)(F)F)cc(C(F)(F)F)c1` (stereo not shown) [I-15]: the mortality at 300 ppm with Dichromothrips corbetti, in the test with Spodoptera eridania and with Plutella xylostella was no less than 75% in each case. For the same compound, the “B.2, 25 ppm” value in the test on Myzus persicae turned out to be 100. Further, the mortality at 2500 ppm with Myzus persicae, in the test with Heliothis virescens and in the test with Anthonomus grandis was no less than 75% throughout. In addition, the “B.7, 10 ppm” value in the test with Aedes aegypti came out at 100.

As for `CC(NC(=O)c1cc(C(F)(F)F)cc(C(F)(F)F)c1)c1nccnc1-n1cncn1` (stereo not shown) [WO2021/037614 P46, reference compound], the “B.6, 100 ppm” value with Dichromothrips corbetti was determined as 0. The “B.2, 10 ppm” value with Myzus persicae was found to be 25.

For `CC(c1nccnc1-n1cncn1)N(CC1CC1)C(=O)c1cc(C(F)(F)F)cc(C(F)(F)F)c1` (stereo not shown) [WO2021/037614 P48, reference compound], in the test with Myzus persicae, the “B.2, 25 ppm” value is recorded as 50. The “B.7, 10 ppm” value in the test on Aedes aegypti was 0.

The mortality is the percentage killed.

For the origin of these results see patent US20250000093A1, “HETEROCYCLIC COMPOUNDS FOR THE CONTROL OF INVERTEBRATE PESTS” (BASF SE, priority 2021, published 2025).
